In paper PMC7072979, “Doxorubicin Inhibits Phosphatidylserine Decarboxylase and Modifies Mitochondrial Membrane Composition in HeLa Cells” (International Journal of Molecular Sciences, 2020):

Molecular target: T1, phosphatidylserine decarboxylase (PSD) (Homo sapiens, UniProt Q9UG56)
T1 construct: gene PISD; native endogenous enzyme in mitochondria isolated from HeLa cells (not purified); proenzyme self-cleaved into alpha and beta subunits
T1 sequence (Q9UG56 53-377): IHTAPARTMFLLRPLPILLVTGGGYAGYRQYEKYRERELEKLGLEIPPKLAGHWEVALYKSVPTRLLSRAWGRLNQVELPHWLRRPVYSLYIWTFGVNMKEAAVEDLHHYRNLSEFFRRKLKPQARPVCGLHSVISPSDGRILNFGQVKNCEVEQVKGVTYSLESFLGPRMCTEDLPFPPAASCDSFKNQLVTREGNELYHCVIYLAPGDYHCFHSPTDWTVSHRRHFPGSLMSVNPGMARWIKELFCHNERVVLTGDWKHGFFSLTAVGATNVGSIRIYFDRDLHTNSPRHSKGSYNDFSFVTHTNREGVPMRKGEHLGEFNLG
T1 sequence (Q9UG56 378-409): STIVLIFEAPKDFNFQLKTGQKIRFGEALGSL
Assay: PE-NBD formation from PS-NBD, HPTLC fluorescence scan, isolated mitochondria
Assay type: biochemical

`COc1cccc2c1C(=O)c1c(O)c3c(c(O)c1C2=O)C[C@@](O)(C(=O)CO)C[C@@H]3O[C@H]1C[C@H](N)[C@H](O)[C@H](C)O1` [Doxorubicin] was tested, and the inhibition at 5 µM was 48%.
